Test results as given in the NIST ThermoML archive (doi:10.1016/j.jct.2016.03.026).
Values joined by “and” are separate entries in the source; they are usually repeats but may differ in a detail not shown here. Identical values can stand only once.

Assay: xn = mol fraction of the nth substance listed
Settings: Fluid (supercritical or subcritical phases); for mass density: 293.15 K, Vibrating tube method, x1 = 0.97; for speed of sound: 298.13 K, Frequency=5 MHz, Pulse-echo method

O=C=O [carbon dioxide] + CO
Settings	mass density [kg/m3]
17725 kPa	924.7
17750 kPa	924.87
17775 kPa	925.03
17800 kPa	925.19
17825 kPa	925.35
17850 kPa	925.49
17875 kPa	925.61
17900 kPa	925.82
17925 kPa	925.93
17950 kPa	926.13
17975 kPa	926.25
18000 kPa	926.42
18025 kPa	926.56
18050 kPa	926.67
18075 kPa	926.86
18100 kPa	927.05
18125 kPa	927.16
18150 kPa	927.35
18175 kPa	927.46
18200 kPa	927.66
18225 kPa	927.75
18250 kPa	927.94
18275 kPa	928.06
18300 kPa	928.22
18325 kPa	928.38
18350 kPa	928.5
18375 kPa	928.68
18400 kPa	928.85
18425 kPa	928.95
18450 kPa	929.11
18475 kPa	929.27
18500 kPa	929.45
18525 kPa	929.53
18550 kPa	929.71
18575 kPa	929.88
18600 kPa	929.97
18625 kPa	930.13
18650 kPa	930.29
18675 kPa	930.46
18700 kPa	930.61
18725 kPa	930.69
18750 kPa	930.86
18775 kPa	931.01
18800 kPa	931.17
18825 kPa	931.25
18850 kPa	931.43
18875 kPa	931.59
18900 kPa	931.74
18925 kPa	931.9
18950 kPa	931.99
18975 kPa	932.14
19000 kPa	932.3
19025 kPa	932.45
19050 kPa	932.6
19075 kPa	932.74
19100 kPa	932.87
19125 kPa	933.01
19150 kPa	933.14
19175 kPa	933.29
19200 kPa	933.42
19225 kPa	933.56
19250 kPa	933.7
19275 kPa	933.83
19300 kPa	933.97
19325 kPa	934.1
19350 kPa	934.24
19375 kPa	934.38
19400 kPa	934.51
19425 kPa	934.64
19450 kPa	934.79
19475 kPa	934.91
19500 kPa	935.12
19525 kPa	935.24
19550 kPa	935.36
19575 kPa	935.49
19600 kPa	935.62
19625 kPa	935.75
19650 kPa	935.88
19675 kPa	936
19700 kPa	936.18
19725 kPa	936.26
19750 kPa	936.44
19775 kPa	936.57
19800 kPa	936.69
19825 kPa	936.81
19850 kPa	936.93
19875 kPa	937.05
19900 kPa	937.17
19925 kPa	937.36
19950 kPa	937.48
19975 kPa	937.6
20000 kPa	937.71

Settings	speed of sound
10080 kPa, x1 = 0.7534	529.7 m/s
14970 kPa, x1 = 0.925	538.3 m/s
14980 kPa, x1 = 0.7534	600.9 m/s
14980 kPa, x1 = 0.925	537.1 m/s
14990 kPa, x1 = 0.925	536.5 m/s and 539.1 m/s
15060 kPa, x1 = 0.8502	554 m/s
19950 kPa, x1 = 0.925	600.2 m/s
19960 kPa, x1 = 0.925	602.2 m/s
20000 kPa, x1 = 0.8502	613.8 m/s
20000 kPa, x1 = 0.925	599.6 m/s and 601.7 m/s
20030 kPa, x1 = 0.7534	657.7 m/s
24940 kPa, x1 = 0.8502	663.5 m/s
24970 kPa, x1 = 0.925	651.7 m/s
24990 kPa, x1 = 0.925	651.3 m/s
25000 kPa, x1 = 0.925	652.9 m/s and 653 m/s
29950 kPa, x1 = 0.925	696.6 m/s
29980 kPa, x1 = 0.925	696.1 m/s
29990 kPa, x1 = 0.925	696.8 m/s
30000 kPa, x1 = 0.8502	707.4 m/s
30010 kPa, x1 = 0.925	695.5 m/s
30030 kPa, x1 = 0.7534	746.7 m/s
34980 kPa, x1 = 0.7534	783.5 m/s
34990 kPa, x1 = 0.925	735.2 m/s
35000 kPa, x1 = 0.925	736.1 m/s
35020 kPa, x1 = 0.925	734.8 m/s
35060 kPa, x1 = 0.8502	746.3 m/s
39980 kPa, x1 = 0.925	771.2 m/s
39990 kPa, x1 = 0.925	770.5 m/s and 770.1 m/s
40000 kPa, x1 = 0.925	771.3 m/s
40030 kPa, x1 = 0.8502	780.8 m/s
